In patent US8658646B2, “Pyrrolopyrazine kinase inhibitors” (Hoffmann-LaRoche Inc., priority 2011, dated 2014):
Several values for one entry are separate records, joined by “and”; a condition that tells them apart may be missing. Identical values can stand only once.

target: T1, JAK3: Recombinant human kinase domain (Homo sapiens, UniProt P52333); test: Determination of IC50 of Janus Kinase (JAK) inhibition, radioactive end-point 33P-ATP assay, JAK3; assay type: biochemical; settings: ATP 1.5 uM, peptide 50 uM, 20 minutes, read-out: JAK3-INHIB-DR/v1~NO ADDITIVE~Enzyme_Conc = 100
T1 construct: JAK3: Recombinant human kinase domain from Millipore (Cat #14-629) or prepared; purchased Millipore 14-629
T1 sequence (P52333 822-1111 limits assumed): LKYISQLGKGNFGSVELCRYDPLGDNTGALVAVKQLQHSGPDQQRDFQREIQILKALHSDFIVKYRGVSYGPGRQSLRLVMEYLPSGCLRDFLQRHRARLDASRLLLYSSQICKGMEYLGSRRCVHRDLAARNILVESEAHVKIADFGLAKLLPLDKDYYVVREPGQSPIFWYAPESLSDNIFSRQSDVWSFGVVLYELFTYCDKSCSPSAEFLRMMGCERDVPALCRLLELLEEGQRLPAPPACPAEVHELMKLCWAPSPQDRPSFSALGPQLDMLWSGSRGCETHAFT

Compound | IC50
C[C@@H](NC(=O)c1c[nH]c2ncc(-c3nn(C)c4c3CC(C)(C)CC4)nc12)C(=O)N1CC(C#N)C1 [Example I-13] | 31.1 nM
C[C@@H](CO)NC(=O)c1c[nH]c2ncc(-c3nn(C)c4cc(Cl)ccc34)nc12 [Example I-164, 2-(6-Chloro-1-methyl-1H-indazol-3-yl)-5H-pyrrolo[2,3-b]pyrazine-7-carboxylic acid ((S)-2-hydroxy-1-methyl-ethyl)-amide] | 17 nM
C[C@@H](NC(=O)c1c[nH]c2ncc(-c3nn(C)c4cc(F)ccc34)nc12)C(F)(F)Cc1ccccc1 [Example I-61, 2-(6-Fluoro-1-methyl-1H-indazol-3-yl)-5H-pyrrolo[2,3-b]pyrazine-7-carboxylic acid ((R)-2,2-difluoro-1-methyl-3-phenyl-propyl)-amide] | 16.8 nM
Cn1nc(-c2cnc3[nH]cc(C(=O)NC4(c5cccc(Br)c5)CCC4)c3n2)c2ccc(F)cc21 [Example I-209, 2-(6-Fluoro-1-methyl-1H-indazol-3-yl)-5H-pyrrolo[2,3-b]pyrazine-7-carboxylic acid [1-(3-bromo-phenyl)-cyclobutyl]-amide] | > 1000 nM and 830 nM
Cn1nc(-c2cnc3[nH]cc(C(=O)N[C@H]4CCC[C@H](C(N)=O)C4)c3n2)c2ccc(Cl)cc21 (relative stereo) [Example I-155, 2-(6-Chloro-1-methyl-1H-indazol-3-yl)-5H-pyrrolo[2,3-b]pyrazine-7-carboxylic acid (trans-3-carbamoyl-cyclohexyl)-amide] | 78.3 nM
CC(C)NC(=O)c1c[nH]c2ncc(-c3nn(CCCN(C)C)c4cc(Cl)cc(F)c34)nc12 [Example I-130, 2-[6-Chloro-1-(3-dimethylamino-propyl)-4-fluoro-1H-indazol-3-yl]-5H-pyrrolo[2,3-b]pyrazine-7-carboxylic acid isopropylamide] | 14.3 nM
C[C@@H](NC(=O)c1c[nH]c2ncc(-c3nn(CCCO)c4cc(Cl)ccc34)nc12)C(=O)N1CC(C#N)C1 [Example I-96, 2-[6-Chloro-1-(3-hydroxy-propyl)-1H-indazol-3-yl]-5H-pyrrolo[2,3-b]pyrazine-7-carboxylic acid [(R)-2-(3-cyano-azetidin-1-yl)-1-methyl-2-oxo-ethyl]-amide] | 5.39 nM
C[C@@H](NC(=O)c1c[nH]c2ncc(-c3nn(C)c4cc(F)ccc34)nc12)c1ccc(Br)cc1 [Example I-216, 2-(6-Fluoro-1-methyl-1H-indazol-3-yl)-5H-pyrrolo[2,3-b]pyrazine-7-carboxylic acid [(R)-1-(4-bromo-phenyl)-ethyl]-amide] | 13 nM
C[C@@H](NC(=O)c1c[nH]c2ncc(-c3nn(C)c4cc(F)ccc34)nc12)C1(C#N)CCCC1 [Example I-100, 2-(6-Fluoro-1-methyl-1H-indazol-3-yl)-5H-pyrrolo[2,3-b]pyrazine-7-carboxylic acid [(R)-1-(1-cyano-cyclopentyl)-ethyl]-amide] | 156 nM
C[C@@H](NC(=O)c1c[nH]c2ncc(-c3nn(C)c4cc(F)ccc34)nc12)c1ccc(C#N)cc1 [Example I-218, 2-(6-Fluoro-1-methyl-1H-indazol-3-yl)-5H-pyrrolo[2,3-b]pyrazine-7-carboxylic acid [(R)-1-(4-cyano-phenyl)-ethyl]-amide] | 14.7 nM
COC[C@H](C)NC(=O)c1c[nH]c2ncc(-c3nn(C)c4cc(Cl)cc(F)c34)nc12 [Example I-170, 2-(6-Chloro-4-fluoro-1-methyl-1H-indazol-3-yl)-5H-pyrrolo[2,3-b]pyrazine-7-carboxylic acid ((S)-2-methoxy-1-methyl-ethyl)-amide] | 7.12 nM
C[C@@H](NC(=O)c1c[nH]c2ncc(-c3nn(C)c4cc(F)ccc34)nc12)c1nc(CC#N)co1 [Example I-62, 2-(6-Fluoro-1-methyl-1H-indazol-3-yl)-5H-pyrrolo[2,3-b]pyrazine-7-carboxylic acid [(R)-1-(4-cyanomethyl-oxazol-2-yl)-ethyl]-amide] | 15.1 nM
Cn1nc(-c2cnc3[nH]cc(C(=O)NC4(c5ccc(Br)cc5)CCC4)c3n2)c2ccc(F)cc21 [Example I-210, 2-(6-Fluoro-1-methyl-1H-indazol-3-yl)-5H-pyrrolo[2,3-b]pyrazine-7-carboxylic acid [1-(4-bromo-phenyl)-cyclobutyl]-amide] | 102 nM
Cn1nc(-c2cnc3[nH]cc(C(=O)N[C@@H]4CCCN(S(C)(=O)=O)C4)c3n2)c2ccc(Cl)cc21 [Example I-15, 2-(6-Chloro-1-methyl-1H-indazol-3-yl)-5H-pyrrolo[2,3-b]pyrazine-7-carboxylic acid ((R)-1-methanesulfonyl-piperidin-3-yl)-amide] | 13.6 nM
C[C@@H](NC(=O)c1c[nH]c2ncc(-c3nn(CC(=O)O)c4cc(Cl)ccc34)nc12)C(=O)N1CC(C#N)C1 [Example I-226, (6-Chloro-3-{7-[(R)-2-(3-cyano-azetidin-1-yl)-1-methyl-2-oxo-ethylcarbamoyl]-5H-pyrrolo[2,3-b]pyrazin-2-yl}-indazol-1-yl)-acetic acid] | 8.1 nM
C[C@@H](NC(=O)c1c[nH]c2ncc(-c3nn(C)c4cccnc34)nc12)C(=O)N1CC(C#N)C1 [Example I-98, 2-(1-Methyl-1H-pyrazolo[4,3-b]pyridin-3-yl)-5H-pyrrolo[2,3-b]pyrazine-7-carboxylic acid [(R)-2-(3-cyano-azetidin-1-yl)-1-methyl-2-oxo-ethyl]-amide] | 6.78 nM
CC(C)CC(C)NC(=O)c1c[nH]c2ncc(-c3nn(C)c4cc(F)ccc34)nc12 (stereo not drawn) [Example I-187, 2-(6-Fluoro-1-methyl-1H-indazol-3-yl)-5H-pyrrolo[2,3-b]pyrazine-7-carboxylic acid (1,3-dimethyl-butyl)-amide] | 20.4 nM
C[C@H](CNC(=O)c1c[nH]c2ncc(-c3nn(C)c4cc(F)ccc34)nc12)C(N)=O [Example I-137, 2-(6-Fluoro-1-methyl-1H-indazol-3-yl)-5H-pyrrolo[2,3-b]pyrazine-7-carboxylic acid ((R)-2-carbamoyl-propyl)-amide] | 132 nM
Cn1nc(-c2cnc3[nH]cc(C(=O)NC(C)(C)C)c3n2)c2cc(OC(F)F)ccc21 [Example I-284, 2-(5-Difluoromethoxy-1-methyl-1H-indazol-3-yl)-5H-pyrrolo[2,3-b]pyrazine-7-carboxylic acid tert-butylamide] | 71.2 nM
C[C@@H](NC(=O)c1c[nH]c2ncc(-c3nn(CCN(C)C)c4cc(Cl)ccc34)nc12)C(=O)N1CC(C#N)C1 [Example I-230, 2-[6-Chloro-1-(2-dimethylamino-ethyl)-1H-indazol-3-yl]-5H-pyrrolo[2,3-b]pyrazine-7-carboxylic acid [(R)-2-(3-cyano-azetidin-1-yl)-1-methyl-2-oxo-ethyl]-amide] | 12.3 nM

Continued, values first:

IC50 | Compound
4.81 nM | C[C@@H](NC(=O)c1c[nH]c2ncc(-c3nn(C)c4cc(Cl)ccc34)nc12)C1CC1 [Example I-16, 2-(6-Chloro-1-methyl-1H-indazol-3-yl)-5H-pyrrolo[2,3-b]pyrazine-7-carboxylic acid ((R)-1-cyclopropyl-ethyl)-amide]
2.31 nM | C[C@@H](NC(=O)c1c[nH]c2ncc(-c3ncn4cc(F)ccc34)nc12)c1ncco1 [Example I-58, 2-(6-Fluoro-imidazo[1,5-a]pyridin-1-yl)-5H-pyrrolo[2,3-b]pyrazine-7-carboxylic acid ((R)-1-oxazol-2-yl-ethyl)-amide]
3.13 nM | CC(C)n1nc(-c2cnc3[nH]cc(C(=O)N[C@H](C)C(=O)N4CC(C#N)C4)c3n2)c2ccc(Cl)cc21 [Example I-91, 2-(6-Chloro-1-isopropyl-1H-indazol-3-yl)-5H-pyrrolo[2,3-b]pyrazine-7-carboxylic acid [(R)-2-(3-cyano-azetidin-1-yl)-1-methyl-2-oxo-ethyl)-amide]
2.12 nM | COC[C@H](C)NC(=O)c1c[nH]c2ncc(-c3nn(C)c4cc(F)c(F)cc34)nc12 [Example I-212, 2-(5,6-Difluoro-1-methyl-1H-indazol-3-yl)-5H-pyrrolo[2,3-b]pyrazine-7-carboxylic acid ((S)-2-methoxy-1-methyl-ethyl)-amide]
1.07 nM | [2H]C([2H])([2H])OC[C@H](C)NC(=O)c1c[nH]c2ncc(-c3nn(C)c4cc(F)ccc34)nc12 [Example I-182, 2-(6-Fluoro-1-methyl-1H-indazol-3-yl)-5H-pyrrolo[2,3-b]pyrazine-7-carboxylic acid ((S)-1-methyl-2-trideuteromethoxy-ethyl)-amide]
2.63 nM | C[C@@H](NC(=O)c1c[nH]c2ncc(-c3nn(C)c4cc(F)ccc34)nc12)c1ncco1 [Example I-50, 2-(6-Fluoro-1-methyl-1H-indazol-3-yl)-5H-pyrrolo[2,3-b]pyrazine-7-carboxylic acid ((R)-1-oxazol-2-yl-ethyl)-amide]
3.83 nM | C[C@@H](NC(=O)c1c[nH]c2ncc(-c3nn(CCO)c4cc(Cl)ccc34)nc12)C(=O)N1CC(C#N)C1 [Example I-90, 2-[6-Chloro-1-(2-hydroxy-ethyl)-1H-indazol-3-yl]-5H-pyrrolo[2,3-b]pyrazine-7-carboxylic acid [(R)-2-(3-cyano-azetidin-1-yl)-1-methyl-2-oxo-ethyl]-amide]
0.48 nM | Cn1nc(-c2cnc3[nH]cc(C(=O)N[C@@H](C(=O)N4CCC(C#N)CC4)C4CC4)c3n2)c2cc(Cl)c(Cl)cc21 [Example I-67, 2-(5,6-Dichloro-1-methyl-1H-indazol-3-yl)-5H-pyrrolo[2,3-b]pyrazine-7-carboxylic acid [(R)-2-(4-cyano-piperidin-1-yl)-1-cyclopropyl-2-oxo-ethyl]-amide]
2.08 nM | CCCn1nc(-c2cnc3[nH]cc(C(=O)N[C@H](C)C(=O)N4CC(C#N)C4)c3n2)c2ccc(Cl)cc21 [Example I-92, 2-(6-Chloro-1-propyl-1H-indazol-3-yl)-5H-pyrrolo[2,3-b]pyrazine-7-carboxylic acid [(R)-2-(3-cyano-azetidin-1-yl)-1-methyl-2-oxo-ethyl]-amide]
1.09 nM | Cc1ccc2c(-c3cnc4[nH]cc(C(=O)N[C@H](C)C(=O)N5CC(C#N)C5)c4n3)nn(C)c2n1 [Example I-89, 2-(1,6-Dimethyl-1H-pyrazolo[3,4-b]pyridin-3-yl)-5H-pyrrolo[2,3-b]pyrazine-7-carboxylic acid [(R)-2-(3-cyano-azetidin-1-yl)-1-methyl-2-oxo-ethyl]-amide]
